Experimental data as given in patent publication US20100063112A1, “POLYMORPH III OF 4-[4-(AMINO)-3-FLUOROPHENOXY]-N-METHYLPYRIDINE-2-CARBOXAMIDE” (BAYER SCHERING PHARMA AKTIENGESELLSCHAFT, priority 2006, published 2010).

Experiment: solubility in water and in organic solvents
Assay type: physicochemical

In the case of `CNC(=O)c1cc(Oc2ccc(NC(=O)Nc3ccc(Cl)c(C(F)(F)F)c3)c(F)c2)ccn1` [polymorph III, 4-[4-({[4-chloro-3-(trifluoromethyl)phenyl]carbamoyl}amino)-3-fluorophenoxy]-N-methylpyridine-2-carboxamide in the polymorph III], the “solubility in organic solvents” value (organic solvents) is reported as “high” and the solubility in water (water) is reported as “high”.
